Results taken from paper PMC6270973, “Two New Phenolic Compounds from the Heartwood of Caesalpinia sappan L” (Molecules, 2013).
Where two headings read alike, the source gives them in different places.

Experiments:
[1] = test system: nitric oxide production in LPS-activated BV-2 microglia; assay: Inhibition of NO production in LPS-stimulated BV-2 microglia; assay type: cell-based; conditions: for inhibitory activity against nitric oxide production (in words): IC50 values lower than those of quercetin, the positive control
Procedure: Two new compounds and six known compounds caesalpin J (3), 1-hydroxy-7-methylxanthone (4), 1,5-dihydroxyxanthone (5), 1,7-dihydroxyxanthone (6), butein (7), and sappanone A (8) were evaluated for their inhibitory activities against nitric oxide production in LPS-activated BV-2 microglia according to a previously described method.
Cytotoxicity was determined with the MTT assay.

[2] = test system: BV-2 microglia
Procedure: (§1) Each compound was dissolved in DMSO and further diluted in the medium to produce different concentrations with a maximum concentration of 50 μM. The absorbance was measured at 570 nm with a Multilabel Plate Reader (Sunrise TECAN, Männedorf, Switzerland). Cytotoxicity was determined with the MTT assay. Quercetin (Sigma-Aldrich, Foster City, CA, USA) was used as the positive control.

[3] = Cytotoxicity (cell viability) by MTT assay; conditions: mouse, BV-2 microglia cells, Viability (at 50 µM, %), compound at 50 µM
Procedure: as §1

[4] = test system: BV-2 microglia; assay: Cytotoxicity (cell viability) by MTT assay; conditions: compound at 50 µM, 50 µM
Procedure: as §1

[5] = LPS-activated BV-2 microglia, maximum concentration tested 50 μM, read-out: IC50 (µM), inhibition of NO production
[6] = Mus musculus, BV-2, LPS-activated BV-2 microglia, maximum concentration tested 50 μM, read-out: IC50 (µM), inhibition of NO production

With 1-hydroxy-7-methylxanthone [Compound 4] the “inhibitory activity against nitric oxide production (in words)” value (from here on “inhibitory activity”) ([1]; LPS-activated BV-2 microglia) was “obvious inhibitory activity”, the IC50 [1, 5] was 14.2 µM and the “Viability (at 50 µM, %)” value [2] was 98.94%.

With `CO[C@H]1[C@]2(O)COC3=CC(=O)C=C[C@@]31c1cc(O)c(O)cc1C2` [Compound 1, epicaesalpin J] the IC50 [1, 6] was 52.6 µM and the viability at 50 µM [3] was 96.5%.

`O=C1C=CC23CC(O)(COC2=C1)Cc1cc(O)c(O)cc13` (stereo not drawn) [Compound 2, 7,10,11-trihydroxydracaenone] gave an IC50 [1, 6] of 56.7 µM and a viability at 50 µM [3] of 99.3%.

In the case of `CO[C@H]1[C@]2(O)COC3=CC(=O)C=C[C@@]31c1cc(O)c(O)cc1C2` [Compound 3, caesalpin J], the IC50 [1, 5] is reported as 45.9 µM and the “Viability (at 50 µM, %)” value [4] is reported as 96.13%.

`O=c1c2cccc(O)c2oc2cccc(O)c12` [Compound 5, 1,5-dihydroxyxanthone] gave an IC50 [1, 6] of 28.7 µM and a viability at 50 µM [3] of 101%.

With `O=c1c2cc(O)ccc2oc2cccc(O)c12` [Compound 6, 1,7-dihydroxyxanthone] the “inhibitory activity” value ([1]; LPS-activated BV-2 microglia) was “obvious inhibitory activity”, the IC50 ([1]; Mus musculus, BV-2, read-out: IC50 (µM), inhibition of NO production) was 21.5 µM and the viability at 50 µM [3] was 102%.

In the case of `O=C(/C=C/c1ccc(O)c(O)c1)c1ccc(O)cc1O` [Compound 7, butein], the “inhibitory activity” value ([1]; LPS-activated BV-2 microglia) is reported as “obvious inhibitory activity”, the IC50 [1, 6] is reported as 15.5 µM and the viability at 50 µM [3] is reported as 94%.

For `O=C1/C(=C/c2ccc(O)c(O)c2)COc2cc(O)ccc21` [Compound 8, sappanone A], the “inhibitory activity” value ([1]; LPS-activated BV-2 microglia) was “obvious inhibitory activity”, the IC50 [1, 6] was 8.26 µM and the viability at 50 µM [3] was 99.3%.

In the case of `O=c1c(O)c(-c2ccc(O)c(O)c2)oc2cc(O)cc(O)c12` [quercetin, reference compound], the IC50 [1, 6] is reported as 23.4 µM.
